Data set [1] is described as follows: Exposure in TNF-induced SIRS study (blood samples for PK determination). The following applies: mouse. Type of data set: in vivo. The procedure:
(§1) Program compounds were dosed by oral gavage 2 h before IV challenge with 20 μg of murine TNF (#CRT192C, Cell Sciences, Canton, Mass.). zVAD-fmk (16.7 mg/kg) was given IV, 15 min before mTNF injection. The RIPK1 kinase inhibitor, necrostatin-1s (Nec-1s) was used as a positive control and was dosed at 6 mg/kg, IV, 30 minutes before mTNF challenge. mTNF was diluted in endotoxin-free PBS and 20 μg/mouse was injected in a volume of 0.1 ml into the retro-orbital sinus. All IV injections were done via the retro-orbital sinus and injection sites were alternated (left and right sides).
(§2) Blood samples for PK determination were collected into heparinized microtainer blood tubes (Part #365965, Becton Dickinson, Franklin Lakes N.J.) and mixed well. Dried blood spots (DBS) were prepared by pipetting 10 μl of whole blood, in duplicate, onto bioanalysis cards (#GR2261004, Perkin Elmer, Greenville, S.C.). A serum sample was obtained by collecting blood into a separator tube (#450472, Greiner Bio-One, Austria) and centrifuged (10 min at 10,000 RPM) to separate the serum. All blood samples were obtained from the retro-orbital sinus while under isoflurane anesthesia.

In data set [2] the test system is MLKL phosphorylation in HT29-L23 human colorectal adenocarcinoma cells. As to the kind of experiment: MLKL Phosphorylation High-Content Assay. Type of data set: cell-based. The following applies: Homo sapiens. In a few lines:
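Cells incubated six hours at 37° C., then phospho-MLKL (S358) immunostained overnight at 4° C. and imaged by high-content microscopy. Phosphorylation quantified as mean circ-ring average intensity ratio; IC50 and Ymax from 4-parameter logistic fits.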

The target in data set [3] is T1, His-GST-TVMV-hRIPK1(1-324) (Homo sapiens, UniProt Q13546).
T1 construct: The coding region of human RIPK1(1-324) flanked by NdeI site at 5′ end; made in house; host or cells: Spodoptera frugiperda (Sf9) insect cells, baculovirus
T1 sequence (Q13546 1-324): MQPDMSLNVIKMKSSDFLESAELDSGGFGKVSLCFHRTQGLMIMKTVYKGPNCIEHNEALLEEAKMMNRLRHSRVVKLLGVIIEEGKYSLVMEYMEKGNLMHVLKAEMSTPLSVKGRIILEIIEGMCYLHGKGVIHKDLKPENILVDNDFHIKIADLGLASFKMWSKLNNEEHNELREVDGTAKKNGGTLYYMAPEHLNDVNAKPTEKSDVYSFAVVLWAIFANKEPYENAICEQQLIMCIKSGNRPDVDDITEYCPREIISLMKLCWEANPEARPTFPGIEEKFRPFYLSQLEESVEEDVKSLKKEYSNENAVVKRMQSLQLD
The data set is described as follows: RIPK1 HTRF Binding Assay. For orientation: Time-resolved FRET reads energy transfer from a long-lived donor to a nearby acceptor.

In data set [4] the test system is Female C57/Bl6 mice, mTNF + zVAD-fmk induced hypothermia. The data set is described as follows: TNF-Induced Systemic Inflammatory Response Syndrome (SIRS), body temperature. It counts as in vivo. The following applies: mouse, 3 h after mTNF, relative to 6 mg/kg Nec-1s, read-out: % protection from body temp loss; for inhibition in vivo at 0.4 mg/kg: 0.4 mg/kg oral gavage 2 h before mTNF; for inhibition in vivo at 1 mg/kg: 1.0 mg/kg oral gavage 2 h before mTNF. The procedure: (§3) TNF-Induced Systemic Inflammatory Response Syndrome (SIRS)
(§4) RIPK1 inhibitors were evaluated for efficacy in vivo using a TNF-dependent model of systemic “shock”, also known as systemic inflammatory response syndrome (SIRS) (Duprez et al. 2011, Immunity 35(6):908-918). Intravenous injection of murine TNF induces a systemic inflammatory response characterized by a decrease in body temperature and an increase in circulating cytokines (IL-6, KC) in the serum. The addition of zVAD-fmk strongly sensitizes mice to TNF-induced shock through the inhibition of caspases (Cauwels et al., 2003). The combination of pretreatment with zVAD-fmk prior to injection of mTNF forms the basis of the RIPK1-dependent, TNF-induced, inflammatory response in this model.
(§5) Female C57/Bl6 mice (9 to 11 weeks old) were obtained from Jackson Labs (Bar Harbor, Me.). Mice were housed in BMS' animal facility with ad libitum access to food and water. Mice were and allowed to acclimate for at least 2 weeks and typically weighed at least 21 grams before being used in any studies. Group size was 6 mice per treatment. All experiments were conducted with the approval of BMS' Institutional Animal Care and Use Committee (IACUC)
as §1
Three (3) hours after mTNF injection, mice were assessed for hypothermia and mortality. Rectal body temperature was recorded with an electric thermometer (Acorn Series Model JKT with a Ret-3 probe, Oakton Instruments Vernon Hills Ill. 60061).
(§6) Using these assays, the percent protection of body temperature and percent reduction in IL6 cytokine of the following compounds were determined. See Table B. % Protection is relative to a 6 mg/kg dose of Nec-1s (5-((7-Cl-1H-indol-3-yl)methyl)-3-methylimidazolidine-2,4-dione)).

Data set [5] concerns IL-6. As to the kind of experiment: TNF-Induced SIRS, serum cytokines (IL-6, KC) by ELISA. Type of data set: in vivo. The conditions noted are these: mouse, relative to 6 mg/kg Nec-1s, read-out: % protection from IL6 increase; for inhibition in vivo at 0.4 mg/kg: 0.4 mg/kg oral gavage 2 h before mTNF; for inhibition in vivo at 1 mg/kg: 1.0 mg/kg oral gavage 2 h before mTNF. The procedure: as §3, §4, §5, §1, §2
Serum cytokines were evaluated by ELISA assay. IL-6 was measured using OPTeia Kit (Becton Dickinson, Franklin Lakes N.J.) while KC was measured using an R&D Duoset kit (R&D Systems Inc. Minneapolis, Minn.)
as §6
Background: In an ELISA, binding on a coated surface is turned into a signal by an enzyme label.

Setting [6] is: x marks IC50 class <20 nM, read-out: pMLKL cell activity <20 nM.
The mark [7] stands for this setting: x marks IC50 class <20 nM, read-out: RIPK1 HTRF binding <20 nM.
The mark [8] stands for this setting: 0.1 mg/kg oral gavage 2 h before mTNF.
Setting [9] is: x marks IC50 class 20-200 nM, read-out: pMLKL cell activity 20-200 nM.
Where [10] appears, read: x marks IC50 class 20-200 nM, read-out: RIPK1 HTRF binding 20-200 nM.
Setting [11] is: x marks IC50 class >200 nM, read-out: pMLKL cell activity >200 nM.

Molecules are shown by their SMILES. Read-outs that look alike come from different tables or passages of the source.

For `COc1ncc(-c2ccn3nc(N)nc3c2)cc1C(=O)NC(C)c1ccccc1OC(F)(F)F` (single isomer, unassigned) [Example 38-1, 5-{2-Amino-[1,2,4]triazolo[1,5-a]pyridin-7-yl}-2-methoxy-N-{1-[2-(trifluoromethoxy)phenyl]ethyl}pyridine-3-carboxamide], the “Exposure” value in data set [1] (0.1 mg/kg oral gavage) is recorded as 12 nM. Moreover, the IC50 in data set [2] (setting [6]) and in data set [3] (setting [7]) was less than 20 nM in each case. Also, the inhibition in vivo at 0.1 mg/kg in data set [4] (setting [8]) amounted to 80%; in data set [5] (setting [8]), 93%.
Consider `COc1ncc(-c2ccn3nc(N)nc3c2)cc1C(=O)NCc1cccc(OC(F)(F)F)c1` [Example 58, 5-{2-Amino-[1,2,4]triazolo[1,5-a]pyridin-7-yl}-2-methoxy-N-{[3-(trifluoromethoxy)phenyl]methyl}pyridine-3-carboxamide], for which the “Exposure” value in data set [1] (0.4 mg/kg oral gavage) turned out to be 409 nM. The IC50 in data set [2] (setting [9]) was 20 to 200 nM; in data set [3] (setting [7]), less than 20 nM. The inhibition in vivo at 0.4 mg/kg was found to be 113% in data set [4] and 78% in data set [5].
Taken in the same sequence, the figures for `COc1ncc(-c2ccn3nc(N)nc3c2)cc1C(=O)NCc1ccccc1OC(F)(F)F` [Example 74, 5-{2-Amino-[1,2,4]triazolo[1,5-a]pyridin-7-yl}-2-methoxy-N-{[2-(trifluoromethoxy)phenyl]methyl}pyridine-3-carboxamide] were 117 nM, 20 to 200 nM, less than 20 nM, 115% and 87%.
Take `COc1ncc(-c2ccn3nc(N)nc3c2)cc1C(=O)NCCCc1ccccc1` [Example 102, 5-{2-amino-[1,2,4]triazolo[1,5-a]pyridin-7-yl}-2-methoxy-N-(4-phenylpropyl)pyridine-3-carboxamide]: in data set [1] (1.0 mg/kg oral gavage), the “Exposure” value is 1287 nM. Further, the IC50 in data set [2] (setting [9]) and in data set [3] (setting [10]) was 20 to 200 nM in each case. In addition, the inhibition in vivo at 1 mg/kg came to 107% in data set [4] and 82% in data set [5].
Turning to `COc1ncc(-c2ccn3nc(N)nc3c2)cc1C(=O)NCc1cc(F)cc(F)c1OCC1CC1` [Example 131, 5-{2-amino-[1,2,4]triazolo[1,5-a]pyridin-7-yl}-N-{[2-(cyclopropylmethoxy)-3,5-difluorophenyl]methyl}-2-methoxypyridine-3-carboxamide], the “Exposure” value in data set [1] (0.4 mg/kg oral gavage) is listed as 50 nM. For the same molecule, the IC50 in data set [2] (setting [6]) and in data set [3] (setting [7]) was less than 20 nM each time. Moreover, the inhibition in vivo at 0.4 mg/kg in data set [4] was 15%; in data set [5], 8%.
Take `COc1ncc(-c2ccn3nc(N)nc3c2)cc1C(=O)N1CCC[C@@H](Cc2ccc(F)cc2)C1` [Example 136, 7-{5-[(3S)-3-[(4-fluorophenyl)methyl]piperidine-1-carbonyl]-6-methoxypyridin-3-yl}-[1,2,4]triazolo[1,5-a]pyridin-2-amine]: in data set [1] (0.4 mg/kg oral gavage), the “Exposure” value came out at 364 nM. For the same molecule, the IC50 in data set [2] (setting [6]) and in data set [3] (setting [7]) was less than 20 nM throughout. Further, the inhibition in vivo at 0.4 mg/kg worked out at 106% in data set [4] and 80% in data set [5].
On to `COc1ncc(-c2ccn3nc(N)nc3c2)cc1C(=O)NCc1cc(OC(F)(F)F)ccc1F` [Example 160, 5-{2-amino-[1,2,4]triazolo[1,5-a]pyridin-7-yl}-N-{[2-fluoro-5-(trifluoromethoxy)phenyl]methyl}-2-methoxypyridin-3-carboxamide], for which, in data set [1] (1.0 mg/kg oral gavage), the “Exposure” value is listed as 693 nM. For the same molecule, the IC50 was 20 to 200 nM in data set [2] (setting [9]) and less than 20 nM in data set [3] (setting [7]). The inhibition in vivo at 1 mg/kg stood at 107% in data set [4] and 60% in data set [5].
In the case of `Cc1ncc(-c2ccn3nc(N)nc3c2)cc1C(=O)NC(C)c1cccc(OC(F)(F)F)c1` (stereo not drawn) [Example 251, 5-{2-amino-[1,2,4]triazolo[1,5-a]pyridin-7-yl}-2-methyl-N-{1-[3-(trifluoromethoxy)phenyl]ethyl}pyridine-3-carboxamide], in data set [1] (1.0 mg/kg oral gavage), the “Exposure” value came out at 1208 nM. In addition, the IC50 in data set [2] (setting [9]) was 20 to 200 nM. The inhibition in vivo at 1 mg/kg was determined as 86% in data set [4] and 97% in data set [5].
Take `COc1ncc(-c2ccn3nc(N)nc3c2)cc1C(=O)NC1CCCC(NC(=O)OC(C)(C)C)C1` (stereo not drawn) [Example 426, tert-butyl (3-(5-(2-amino-[1,2,4]triazolo[1,5-a]pyridin-7-yl)-2-methoxynicotinamido)cyclohexyl)carbamate]: the IC50 in data set [2] (setting [11]) was more than 200 nM; in data set [3] (x marks IC50 class >200 nM, read-out: RIPK1 HTRF binding >200 nM), more than 200 nM.
Regarding `COc1ncc(-c2ccn3nc(N)nc3c2)cc1C(=O)N1CCCC(C(=O)Cc2ccccc2)C1` (stereo not drawn) [Example 427, 1-(1-(5-(2-amino-[1,2,4]triazolo[1,5-a]pyridin-7-yl)-2-methoxynicotinoyl)piperidin-3-yl)-2-phenylethan-1-one], the IC50 in data set [2] (setting [9]) and in data set [3] (setting [10]) was 20 to 200 nM in each case.
Regarding `COc1ncc(-c2ccn3nc(N)nc3c2)cc1C(=O)N1CCOC(Cc2ccccc2)C1` (stereo not drawn) [Example 428, (5-(2-amino-[1,2,4]triazolo[1,5-a]pyridin-7-yl)-2-methoxypyridin-3-yl)(2-benzylmorpholino)methanone], the IC50 in data set [2] (setting [11]) is more than 200 nM; in data set [3] (setting [10]) it was 20 to 200 nM.

These data come from US10913738B2 (BRISTOL-MYERS SQUIBB COMPANY, priority 2017, dated 2021).
